The source of these data is patent US10336730B2, “Substituted glycine derived FXIA inhibitors” (BRISTOL-MYERS SQUIBB COMPANY, priority 2015, dated 2019).

Holding throughout (format): biochemical
In assay [1] the target is T1, purified human plasma kallikrein (Homo sapiens, UniProt P03952).
T1 construct: purchased Enzyme Research Laboratories
Briefly: Plasma kallikrein enzyme inhibition assay (chromogenic substrate S-2302), Ki. The conditions noted are these: substrate S-2302, pH 7.5. The method, then:
The effectiveness of compounds of the present invention as inhibitors of the coagulation Factors XIa, VIIa, IXa, Xa, XIIa, plasma kallikrein, thrombin, chemytrypsin or trypsin can be determined using a relevant purified serine protease, respectively, and an appropriate synthetic substrate. The rate of hydrolysis of the chromogenic or fluorogenic substrate by the relevant serine protease was measured both in the absence and presence of compounds of the present invention. […] A decrease in the rate of absorbance or fluorescence change in the presence of inhibitor is indicative of enzyme inhibition. Such methods are known to one skilled in the art. The results of this assay are expressed as the inhibitory constant, Ki.
Plasma kallikrein determinations were made in 0.1 M sodium phosphate buffer at a pH of 7.5 containing 0.1-0.2 M sodium chloride and 0.5% PEG 8000. Determinations were made using purified human plasma kallikrein (Enzyme Research Laboratories) at a final assay concentration of […] and the synthetic substrate S-2302 (H-(D)-Pro-Phe-Arg-pNA; CHROMOGENIX®) at a concentration of 0.00008-0.0004 M.
Values of Ki were determined by allowing the protease to react with the substrate in the presence of the inhibitor. Reactions were allowed to go for periods of 20-180 minutes (depending on the protease) and the velocities (rate of absorbance or fluorescence change versus time) were measured. The following relationships were used to calculate Ki values: (Vmax*S)/(Km+S) (vo−vs)/vs=I/(Ki*(1+S/Km)) for a competitive inhibitor with one binding site; or vs/vo=A+(B−A)/(1+(IC50/(I)^n)); and Ki=IC50/(1+S/Km) for a competitive inhibitor where: […]

The subject of assay [2] is citrated normal human plasma. Briefly: Activated Partial Thromboplastin Time (aPTT) plasma clotting assay. The following applies: inhibitor concentration required to increase the clotting time by 1.5 times. The text has this: The effectiveness of compounds of the present invention as inhibitors of coagulation can be determined using a standard or modified clotting assay. An increase in the plasma clotting time in the presence of inhibitor is indicative of anticoagulation. Relative clotting time is the clotting time in the presence of an inhibitor divided by the clotting time in the absence of an inhibitor. The results of this assay may be expressed as IC1.5× or IC2×, the inhibitor concentration required to increase the clotting time by 1.5 times or 2 times, respectively, relative to the clotting time in the absence of the inhibitor. The IC1.5× or IC2× is found by linear interpolation from relative clotting time versus inhibitor concentration plots using inhibitor concentrations that span the IC1.5× or IC2×.
Clotting times are determined using citrated normal human plasma as well as plasma obtained from a number of laboratory animal species (e.g., rat, or rabbit). A compound is diluted into plasma beginning with a 10 mM DMSO stock solution. The final concentration of DMSO is less than 2%. Plasma clotting assays are performed in an automated coagulation analyzer (Sysmex, Dade-Behring, Illinois). Similarly, clotting times can be determined from laboratory animal species or humans dosed with compounds of the invention.
Activated Partial Thromboplastin Time (aPTT) is determined using ACTIN® FSL (Dade-Behring, Illinois) following the directions in the package insert. Plasma (0.05 mL) is warmed to 37° C. for 1 minute. ACTIN® FSL (0.05 mL) is added to the plasma and incubated for an additional 2 to 5 minutes. Calcium chloride (25 mM, 0.05 mL) is added to the reaction to initiate coagulation. The clotting time is the time in seconds from the moment calcium chloride is added until a clot is detected.

Assay [3] deals with T2, purified human Factor XIa (Homo sapiens, UniProt P03951).
T2 construct: purchased Haematologic Technologies
T2 sequence (P03951 388-625 limits assumed): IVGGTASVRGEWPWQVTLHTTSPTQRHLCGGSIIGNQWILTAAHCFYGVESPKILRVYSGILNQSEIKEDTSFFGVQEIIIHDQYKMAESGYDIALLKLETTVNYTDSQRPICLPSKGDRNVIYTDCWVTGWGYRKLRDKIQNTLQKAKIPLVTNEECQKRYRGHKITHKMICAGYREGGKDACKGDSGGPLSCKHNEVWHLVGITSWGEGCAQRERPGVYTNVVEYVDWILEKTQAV
T2 sequence (P03951 19-387 partner limits assumed): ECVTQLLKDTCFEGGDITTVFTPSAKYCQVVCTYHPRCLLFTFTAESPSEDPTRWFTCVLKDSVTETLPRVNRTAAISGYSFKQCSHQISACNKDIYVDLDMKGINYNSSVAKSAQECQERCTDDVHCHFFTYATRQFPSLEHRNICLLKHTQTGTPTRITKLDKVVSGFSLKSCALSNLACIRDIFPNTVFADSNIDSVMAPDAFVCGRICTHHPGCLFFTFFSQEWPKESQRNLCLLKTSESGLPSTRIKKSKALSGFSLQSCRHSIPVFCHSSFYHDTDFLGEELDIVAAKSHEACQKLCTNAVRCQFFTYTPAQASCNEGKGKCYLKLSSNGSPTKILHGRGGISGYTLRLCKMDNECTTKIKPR
The assay is described as follows: Factor XIa enzyme inhibition assay (chromogenic substrate S-2366), Ki. The following applies: substrate S-2366, pH 7.4. In short, it runs like this:
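Purified human Factor XIa ([…] final) with chromogenic substrate S-2366 (0.0002-0.001 M) in 50 mM HEPES pH 7.4, 145 mM NaCl, 5 mM KCl, 0.1% PEG 8000. Velocities measured over 20-180 minutes with and without inhibitor; Ki derived assuming competitive inhibition, e.g. Ki=IC50/(1+S/Km).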

T1 sequence (P03952 391-638 limits assumed): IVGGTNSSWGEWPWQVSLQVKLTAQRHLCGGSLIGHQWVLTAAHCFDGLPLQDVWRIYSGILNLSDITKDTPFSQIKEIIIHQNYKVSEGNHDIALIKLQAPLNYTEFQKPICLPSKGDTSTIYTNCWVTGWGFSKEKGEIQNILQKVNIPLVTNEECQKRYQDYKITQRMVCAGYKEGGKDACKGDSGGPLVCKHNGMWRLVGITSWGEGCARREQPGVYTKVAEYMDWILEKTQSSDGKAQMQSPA
T1 sequence (P03952 20-390 partner limits assumed): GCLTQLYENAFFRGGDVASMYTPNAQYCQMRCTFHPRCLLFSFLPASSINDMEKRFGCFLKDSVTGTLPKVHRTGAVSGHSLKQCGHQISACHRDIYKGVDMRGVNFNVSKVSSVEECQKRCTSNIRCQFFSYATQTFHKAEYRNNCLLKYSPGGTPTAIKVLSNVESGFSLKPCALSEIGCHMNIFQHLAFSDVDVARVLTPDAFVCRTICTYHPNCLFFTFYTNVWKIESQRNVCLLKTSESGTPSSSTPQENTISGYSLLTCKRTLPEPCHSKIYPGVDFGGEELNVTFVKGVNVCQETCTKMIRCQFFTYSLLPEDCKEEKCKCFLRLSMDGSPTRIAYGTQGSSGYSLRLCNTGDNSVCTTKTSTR

The Ki is a measure of affinity in units of concentration, obtained from inhibition or displacement. On to `O=C(Nc1ccc2cn[nH]c2c1)[C@H](Cc1ccccc1)n1cnc(-c2cc(Cl)ccc2-n2cc(Cl)nn2)cc1=O` [Example 17, (S)-2-(4-(5-chloro-2-(4-chloro-1H-1,2,3-triazol-1-yl)phenyl)-6-oxopyrimidin-1(6H)-yl)-N-(1H-indazol-6-yl)-3-phenylpropanamide], for which the Ki in assay [1] was determined as 166 nM; in assay [3] it was 16 nM. For the same molecule, the “aPTT (IC1.5×)” value in assay [2] turned out to be 17.6 µM.
The matching figures for `Cc1c(CC(C(=O)Nc2ccc(C(=O)O)cc2)N2CCC(c3c(F)ccc(Cl)c3F)=CC2=O)ccc2cn[nH]c12` (stereo not drawn) [Example 135, 4-(2-(4-(3-chloro-2,6-difluorophenyl)-6-oxo-3,6-dihydropyridin-1(2H)-yl)-3-(7-methyl-1H-indazol-6-yl)propanamido)benzoic Acid]: 1870 nM, 199 nM and 1.74 µM.
